Here are results for two compounds from patent US5834452A, “1- or 6-hydroxylated steroids” (Roussel Uclaf, priority 1996, dated 1998).

For experiment [1], the system named is endometrial proliferation (uterine lace). The experiment can be described thus: Progestomimetic activity: endometrial transformation in the rabbit (Clauberg-McPhail test). It counts as in vivo. Set-up: key to Maximal activity on the uterine lace (McPhail index) / Average uterine lace (McPhail Index): McPhail scale 0–4 with 0.5 steps (endometrial proliferation). As to conditions: for Average uterine lace (McPhail Index): day 8 to day 11. As to the method: 2. --Determination of the progestomimetic activity of the products of the invention: Endometrial transformation in the rabbit. The animals used were impuberal female rabbits which were 40-45 days old. The animals were treated with estradiol (5 ug/0.2 ml/rabbit in solution of corn oil, 10% ethanol) by subcutaneous route from day 1 to day 5, then the product to be studied was administered from day 8 to day 11. On day 12, the animals were sacrificed and a median portion of each uterine cornua was removed from each animal and fixed in Bouin's liquid for histological study. After fixing, the samples were dehydrated, included, cut, mounted, the paraffin was removed and then the sample was stained with hemalum-eosin-saffron. […] Then, for each of the cornua, a semi-quantitative evaluation of the endometrial proliferation (uterine lace) was carried out by the McPhail scale from 0 to 4 with 0.5 intermediates and the two figures were averaged. Similarly, the degree of hypertrophy of the cornua was evaluated by the same scale. At higher magnification, morphological observations of the mucous membrane or the myometrium could possibly be formulated. The 1-OH metabolite (product A) was tested at doses of 10, 100, 1000 μg/kg by subcutaneous route as well as orally at a dose of 1000 μg/kg. The 6-OH metabolite (product B) was tested at doses of 100, 1000 and 10000 μg/kg subcutaneously. As a control, progesterone was administered at doses of 100 and 1000 μg/kg by subcutaneous route. The averages were produced for the uterine lace (McPhail Index).

Experiment [2] has as its target T1, Human progesterone receptor (HPR) (Homo sapiens, UniProt P06401).
T1 construct: made in house; host or cells: SF9 insect cells (ATCC CRL1711), baculovirus, lysate supernatant
T1 sequence (P06401 1-933): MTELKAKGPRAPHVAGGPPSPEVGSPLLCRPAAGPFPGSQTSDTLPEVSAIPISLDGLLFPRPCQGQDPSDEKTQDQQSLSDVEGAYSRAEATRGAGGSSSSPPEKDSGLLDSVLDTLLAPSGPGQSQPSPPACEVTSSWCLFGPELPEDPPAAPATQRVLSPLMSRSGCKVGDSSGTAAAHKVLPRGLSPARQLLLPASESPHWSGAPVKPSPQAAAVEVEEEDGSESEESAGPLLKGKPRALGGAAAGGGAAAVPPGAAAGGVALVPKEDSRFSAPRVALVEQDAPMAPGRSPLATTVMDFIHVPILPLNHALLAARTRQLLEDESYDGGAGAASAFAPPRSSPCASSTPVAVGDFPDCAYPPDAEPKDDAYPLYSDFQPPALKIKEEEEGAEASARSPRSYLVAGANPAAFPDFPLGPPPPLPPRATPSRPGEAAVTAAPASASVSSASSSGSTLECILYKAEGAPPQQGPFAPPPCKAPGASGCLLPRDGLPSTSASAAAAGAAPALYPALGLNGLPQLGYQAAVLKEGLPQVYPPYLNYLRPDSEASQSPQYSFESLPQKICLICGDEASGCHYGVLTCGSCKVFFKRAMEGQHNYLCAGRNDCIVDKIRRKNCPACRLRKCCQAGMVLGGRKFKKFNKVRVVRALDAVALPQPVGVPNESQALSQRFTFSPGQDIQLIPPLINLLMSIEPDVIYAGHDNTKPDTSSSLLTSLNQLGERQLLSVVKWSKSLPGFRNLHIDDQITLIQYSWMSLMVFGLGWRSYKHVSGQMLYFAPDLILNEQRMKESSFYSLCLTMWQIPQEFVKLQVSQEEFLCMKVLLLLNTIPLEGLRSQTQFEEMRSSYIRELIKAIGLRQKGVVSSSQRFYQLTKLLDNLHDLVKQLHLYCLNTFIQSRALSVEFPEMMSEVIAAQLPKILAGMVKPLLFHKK
The experiment can be described thus: Relative bond affinity (RBA), recombinant human progestogen receptor, charcoal dextran technique. The experiment is classed as binding. As to conditions: relative to Trimegestone. An excerpt: The human recombinant receptor (HGR, HPR, HAR, HMR, HER) was used.
Human progesterone receptor (HPR):
The recombinant human progestogen receptor was obtained by the superexpression in a cell system of insects--Baculovirus, according to the methodology described by Webb et al (Journal of Methods in Cell and Molecular Biology, (1990) Vol. 2 No. 4, p. 173-188) and the application of which was described for the expression of human hormonal receptors, for example the human glucocorticoid receptor (Srinivasan et al, Molecular Endocrinology, (1990) Vol. 4 No. 2, p. 209-216.
The BaculoGold Transfection Kit (PharMingen, reference 21000K) was used to insert the cDNA fragment described by Kastner et al (The EMBO Journal, (1990), Vol. 9 No. 5, p. 1603-1614), containing the region coding for the human progestogen receptor and to prepare the corresponding recombinant virus. The recombinant virus obtained in this way was used to express the progestogen receptor in SF9 insect cells (ATCC CRL1711), according to the known methodology cited previously.
2×10^7 to 2.5×10^7 SF9 cells were cultured in a 175 ml "Falcon" flask in the TNM-FH medium supplemented with 10% fetal calf serum (FCS) and with 50 micrograms/ml of gentamycin. After infection, then incubation at 27° C. for 40 to 42 hours, the cells were taken up in 1 ml of lysis buffer (1), lysed by 2 cycles of freezing-thawing (-80° C./ 0° C.), then centrifuged at 4° C. for 30 minutes at 20,900 g. The supernatant, containing the recombinant human progestogen receptor, was stored in liquid nitrogen in quantities of 1 ml.
The supernatant was diluted at the time of use with 10 mM Tris buffer, 0.25M saccharose, HCl pH 7.4 containing 0.1% of gelatin and then incubated at 0° C. for 24 hours with a constant concentration (T) of tritiated 17α, 21-dimethyl-19-nor-Δ^4,9 pregnadiene-3,20-dione in the presence of increasing concentrations of either unlabelled progesterone (0-2500×10^-9 M), or the unlabelled product to be tested (1 to 25000×10^-9 M). The concentration of bound tritiated 17,21-dimethyl-19-nor-Δ^4,9 -pregnadiene-3,20-dione (B) was then measured in each incubate using the charcoal dextran adsorption technique.
Calculation of the relative bond affinity (RBA).
The following two curves were drawn: the percentage of bound tritiated hormone B/BO as a function of the logarithm of the concentration of unlabelled reference hormone or as a function of the logarithm of the concentration of unlabelled test product. The straight line of the following equation was determined: […]
The relative bond affinity (RBA) of the test product was determined by the equation: […]

The structures appear in SMILES notation.

Consider `C[C@H](O)C(=O)[C@@]1(C)CC[C@H]2[C@@H]3CCC4=CC(=O)C[C@H](O)C4=C3CC[C@@]21C` [Product A, [1α, 17β-(S)]-1-hydroxy-17-(2-hydroxy-1-oxopropyl)-17-methyl-Δ^4,9-estradiene-3-one], for which the “Average uterine lace (McPhail Index)” value in experiment [1] (rabbit, 0,01 mg/kg, s/c) is 3,8; in experiment [1] (rabbit, 0,1 mg/kg, s/c), 3,8; in experiment [1] (rabbit, 1 mg/kg, per os), 4; in experiment [1] (rabbit, 1 mg/kg, s/c, 1 mg/kg) it was 3,8. Moreover, the “Hypertrophy of the cornua” value in experiment [1] (rabbit, 1 mg/kg p/o route versus s/c route) was “stronger hypertrophy of the cornua”. Moreover, the “RBA for the human progestogen receptor, times weaker than that of Trimegestone” value in experiment [2] was 9 times.
As to `CC(=O)[C@H]1CC[C@H]2[C@@H]3CCC4=CC(=O)CC[C@]4(C)[C@H]3CC[C@]12C` [Progesterone, reference compound], the “Average uterine lace (McPhail Index)” value in experiment [1] (rabbit, 0,1 mg/kg, s/c) is 1,8; in experiment [1] (rabbit, 1 mg/kg, s/c), 3,8. Besides, the “Maximal activity on the uterine lace (McPhail index)” value in experiment [1] (rabbit, 1000 μg/kg by subcutaneous route (note)) amounted to 4.
